From publication PMC7948398, “Rapid kinetics reveal surprising flavin chemistry in bifurcating electron transfer flavoprotein from Acidaminococcus fermentans” (The Journal of Biological Chemistry, 2020)

Target: T1, EtfAB; EtfaB (EtfAB from which α-FAD was removed) (Acidaminococcus fermentans, UniProt D2RIQ2+D2RIQ3)
T1 construct: gene Acfer_0555; recombinant from pET-11a by autoinduction; AB heterodimer, 66 kDa; EtfAB holds α-FAD and β-FAD; EtfaB made by removing FAD from the A-subunit (phenyl Sepharose, KBr); with Electron transfer flavoprotein subunit alpha
T1 sequence (D2RIQ2 1-263): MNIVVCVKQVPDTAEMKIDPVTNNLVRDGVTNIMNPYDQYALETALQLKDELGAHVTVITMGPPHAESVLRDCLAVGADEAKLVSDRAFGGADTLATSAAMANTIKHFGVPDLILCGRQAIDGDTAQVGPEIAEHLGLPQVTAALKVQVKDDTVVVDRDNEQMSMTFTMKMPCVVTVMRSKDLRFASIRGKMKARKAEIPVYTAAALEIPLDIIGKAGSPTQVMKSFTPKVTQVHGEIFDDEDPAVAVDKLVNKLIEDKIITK
T1 sequence (D2RIQ3 1-340): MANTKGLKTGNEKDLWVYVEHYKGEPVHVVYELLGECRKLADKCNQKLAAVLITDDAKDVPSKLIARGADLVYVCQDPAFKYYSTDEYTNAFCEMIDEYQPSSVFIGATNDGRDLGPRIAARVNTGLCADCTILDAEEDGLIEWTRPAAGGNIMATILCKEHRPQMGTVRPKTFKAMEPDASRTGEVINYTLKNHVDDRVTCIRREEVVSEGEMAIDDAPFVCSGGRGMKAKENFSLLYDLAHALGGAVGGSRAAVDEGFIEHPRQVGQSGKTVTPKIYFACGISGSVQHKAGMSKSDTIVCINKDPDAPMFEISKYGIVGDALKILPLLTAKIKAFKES
Assay: anaerobic stopped-flow, kobs at […] nm versus [NADH]
Format: biochemical
Conditions: EtfaB form (β-FAD only, α-FAD removed), slow-reacting minor population (~16%); 50 mM potassium phosphate pH 7.0, 4 °C; site at β-FAD

Kd: 3.8 ± 0.2 mM
Compound: NC(=O)C1=CN([C@@H]2O[C@H](COP(=O)(O)OP(=O)(O)OC[C@H]3O[C@@H](n4cnc5c(N)ncnc54)[C@H](O)[C@@H]3O)[C@@H](O)[C@H]2O)C=CC1 [NADH]
